According to US20260250278A1, “PHENYL-SUBSTITUTED DIHYDRONAPHTHYRIDINE COMPOUNDS, AND PREPARATION AND USE THEREOF” (SUZHONG PHARMACEUTICAL GROUP CO., LTD., priority 2022, published 2026):
pIC50: −log10 of the molar value.

These compounds were tested against T1, mineralocorticoid receptor (MR) (Homo sapiens, UniProt P08235) (assay: MR Gal4-LBD luciferase reporter gene assay in HEK293T cells (antagonism of 0.8 nM aldosterone)).
T1 construct: expressed in transfected cells
T1 sequence (P08235 726-964 limits assumed): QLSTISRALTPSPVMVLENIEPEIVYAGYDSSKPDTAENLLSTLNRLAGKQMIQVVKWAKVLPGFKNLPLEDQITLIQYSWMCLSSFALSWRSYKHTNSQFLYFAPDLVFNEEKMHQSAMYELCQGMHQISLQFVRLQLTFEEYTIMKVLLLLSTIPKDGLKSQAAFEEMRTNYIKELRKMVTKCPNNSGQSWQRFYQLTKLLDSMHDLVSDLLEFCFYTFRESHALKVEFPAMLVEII
Format: cell-based
From the text: By the characteristic of chemiluminescence reaction produced by combination of luciferase and substrate, a Gal4 DNA binding domain (DBD) fused plasmid containing a mineralocorticoid receptor (MR) ligand binding domain (LBD) and a firefly luciferase reporter gene plasmid under the control of Gal4 UAS (upstream activation sequence) were transfected into human embryonic kidney cells (HEK293). Changes of […] were judged by a level of firefly luciferase activity.
All compounds were dissolved in DMSO to prepare a 25 mM stock solution, and stored in a refrigerator at −20° C.
• 1) A compound to be tested was subjected to 3-times gradient dilution with the DMSO, with 10 concentration gradients and an initial concentration of 10 mM. • 2) A positive compound (Finerenone) was subjected to 3-times gradient dilution with the DMSO, with 10 concentration gradients and an initial concentration of 1 mM. • 3) 1000× positive control (1 mM, Finerenone) and 1000× negative control (100% DMSO) were prepared. • 4) A compound plate was sealed and shaken for 5 minutes.
• 5) All cells were cultured by ATCC standard operation, and HEK293T was experimented in an exponential growth phase. • 6) A culture medium supernatant was gently discarded. The cells were washed with PBS twice.
(3) The cells were digested with pancreatin digestive juice, the digestion was stopped with a complete culture solution, and then the cells were collected and counted.
(4) 6×10^6 HEK293T cells were inoculated into a 100 mm cell culture dish.
(5) The culture dish inoculated with the cells was cultured in a 5% CO2 incubator at 37° C. for 16 hours overnight.
• 1) Lipofectamine® 3000&P3000 transfection reagents were placed at room temperature. • 2) The Lipofectamine® 3000 reagent was added into an Opti-MEM™ culture medium, and meanwhile, the P3000, the plasmid and the Opti-MEM™ culture medium were added into another tube, taking care not to touch the tube wall. • 3) The mixture was mixed evenly by a pipette, and allowed to stand at room temperature for 5 minutes. • 4) The plasmid was added into the diluted transfection reagent, mixed evenly by a pipette, and allowed to stand at room temperature for 20 minutes. • 5) The transfection reagent mixed with the plasmid was added into a […] cell culture dish. • 6) The culture dish was cultured in a 5% CO2 incubator at 37° C. for 5 hours to 6 hours.
• 1) 25 nL of diluted compound was transferred to a cell culture plate with Echo655. • 2) The cells (referring to step 1.3) were inoculated into a 384 cell culture plate, with 17,000 cells, 25 μL of phenol red-free DMEM culture medium containing 5% CFBS and 0.8 nM Aldosteron per well.
(3) The cell culture plate was cultured in a 5% CO2 incubator at 37° C. for 18 hours to 20 hours overnight.
• 1) A Britelite plus detection reagent was placed at room temperature. 2) The 384 cell plate was placed at room temperature. • 3) 25 μL of Britelite plus detection reagent was added into each well of the cell culture plate. • 4) A luminescence was detected with Envision.
• 1) a firefly luciferase signal was obtained by reading the Luminescence to calculate an inhibition rate; • 2) % inhibition rate=100−[(RLU compound−avgRLU positive control)/(RLU negative control−avgRLU positive control)×100%, wherein the avgRLU positive control was an average value of Luminescences of all positive control wells in the whole plate; the avgRLU negative control was an average value of Luminescences of all negative control wells in the whole plate; and the RLU compound was Luminescence values of compounds to be tested with different concentrations; and • 3) IC50 of the compound was calculated by Graphpad8.0 Drawing software.

pIC50 | SMILES
7.04 | CCOc1ncc(C)c2c1C(c1ccc(C#N)c3c1OCC3)C(C(N)=O)=C(C)N2 (stereo not drawn) [Example 11, 4-(4-cyano-2,3-dihydrobenzofuran-7-yl)-5-ethoxy-2,8-dimethyl-1,4-dihydro-1,6-naphthyridine-3-formamide]
8.10 | CCOc1ncc(C)c2c1[C@H](c1ccc(C#N)c3c1OCCC3)C(C(N)=O)=C(C)N2 [Example 32, (S)-4-(5-cyanored-8-yl)-5-ethoxy-2,8-dimethyl-1,4-dihydro-1,6-naphthyridine-3-formamide]
8.10 | CC1=C(C(N)=O)C(c2ccc(C#N)c3c2OCC3)c2c(OCC(F)(F)F)ncc(C)c2N1 (stereo not drawn) [Example 24, 4-cyano-2,3-dihydrobenzofuran-7-yl-2,8-dimethyl-5-(2,2,2-trifluoroethoxy)-1,4-dihydro-1,6-naphthyridine-3-formamide]
6.67 | CCOc1nc2ccccc2c2c1C(c1ccc(C#N)cc1OC)C(C#N)=C(C)N2 (stereo not drawn) [Example 12, 4-(4-cyano-2-methoxyphenyl)-5-ethoxy-2-methyl-1H,4H-benzo[h]-1,6-naphthyridine-3-carbonitrile]
6.63 | CCOc1nc2ccsc2c2c1C(c1ccc(C#N)cc1OC)C(C(N)=O)=C(C)N2 (stereo not drawn) [Example 13, 6-(4-cyano-2-methoxyphenyl)-5-ethoxy-8-methyl-6,9-dihydrothieno[3,2-h][1,6]naphthyridine-7-formamide]
7.56 | CC1=C(C(N)=O)C(c2ccc(C#N)c3c2OCC3)c2c(OCC3CC3)ncc(C)c2N1 (stereo not drawn) [Example 19, 4-cyano-2,3-dihydrobenzofuran-7-yl-5-cyclopropylmethoxy-2,8-dimethyl-1,4-dihydro-1,6-naphthyridine-3-formamide]
6.72 | CCOc1ncc(C)c2c1C(c1ccc(C#N)cc1OC)C(c1ncco1)=C(C)N2 (stereo not drawn) [Example 1]
7.34 | CCOc1ncc(C)c2c1C(c1ccc(C#N)c3c1OCO3)C(C(N)=O)=C(C)N2 (stereo not drawn) [Example 14, 4-(7-cyanobenzo[d][1,3]dioxacyclopenten-4-yl)-5-ethoxy-2,8-dimethyl-1,4-dihydro-1,6-naphthyridine-3-formamide]
6.63 | COc1cc(C#N)ccc1C1C(C#N)=C(C)Nc2c1ccc1c2CCC1 (stereo not drawn) [Example 5, 4-(4-cyano-2-methoxyphenyl)-2-methyl-4,7,8,9-tetrahydrocyclopentane-3-carbonitrile]
6.95 | CCOc1ncc(C)c2c1C(c1ccc(C#N)cc1OC)C(c1nnc(C)o1)=C(C)N2 (stereo not drawn) [Example 3, 4-(5-ethoxy-2,8-dimethyl-3-(5-methyl-1,3,4-oxadiazole-2-yl)-1,4-dihydro-1,6-naphthyridine-4-yl)-3-methoxybenzonitrile]
8.06 | CC1=C(C(N)=O)C(c2ccc(C#N)c3c2OCC3)c2c(OCC3CCC3)ncc(C)c2N1 (stereo not drawn) [Example 22]
7.69 | COc1cc(C#N)ccc1C1C(C#N)=C(C)Nc2sc3ccccc3c21 (stereo not drawn) [Example 8, 4-(4-cyano-2-methoxyphenyl)-2-methyl-1,4-dihydrobenzo[4,5]thieno[2,3-b]pyridine-3-carbonitrile]
7.47 | CC1=C(C(N)=O)C(c2ccc(C#N)c3c2OCC3)c2c(OCC3CC(F)(F)C3)ncc(C)c2N1 (stereo not drawn) [Example 16]
7.31 | CCOc1ncc(C)c2c1C(c1ccc(C#N)cc1OC)C(c1nnco1)=C(C)N2 (stereo not drawn) [Example 2, 4-(5-ethoxy-2,8-dimethyl-3-(1,3,4-oxadiazole-2-yl)-1,4-dihydro-1,6-naphthyridine-4-yl)-3-methoxybenzonitrile]
7.82 | CC1=C(C(N)=O)C(c2ccc(C#N)c3c2OCC3)c2c(OC(C)C)ncc(C)c2N1 (stereo not drawn) [Example 20, 4-(4-cyano-2,3-dihydro-1-benzofuran-7-yl)-5-isopropoxy-2,8-dimethyl-1,4-dihydro-1,6-naphthyridine-3-formamide]
7.55 | CC1=C(C(N)=O)C(c2ccc(C#N)c3c2OCC3)c2c(OC3CC3)ncc(C)c2N1 (stereo not drawn) [Example 18, 4-(4-cyano-2,3-dihydrobenzofuran-7-yl)-5-cyclopropoxy-2,8-dimethyl-1,4-dihydro-1,6-naphthyridine-3-formamide]
7.43 | CCOc1ncc(C)c2c1C(c1ccc(C#N)c3c1OCCO3)C(C(N)=O)=C(C)N2 (stereo not drawn) [Example 25, 4-(8-cyano-2,3-dihydrobenzo[b][1,4]dioxin-5-yl)-5-ethoxy-2,8-dimethyl-1,4-dihydro-1,6-naphthyridine-3-formamide]
6.18 | CCOc1nn(C)c2c1C(c1ccc(C#N)cc1OC)C(C#N)=C(C)N2 (stereo not drawn) [Example 9, 4-(4-cyano-2-methoxyphenyl)-3-ethoxy-1,6-dimethyl-4,7-dihydropyrazolo[3,4-b]pyridine-5-carbonitrile]
7.90 | CCOc1ncc(C)c2c1[C@H](c1ccc(C#N)c3c1OCCO3)C(C(N)=O)=C(C)N2 [Example 40, (S)-4-(8-cyano-2,3-dihydrobenzo[b][1,4]dioxin-5-yl)-5-ethoxy-2,8-dimethyl-1,4-dihydro-1,6-naphthyridine-3-formamide]
6.49 | COc1cc(C#N)ccc1C1C(C#N)=C(C)Nc2c(C)cn3nccc3c21 (stereo not drawn) [Example 7, 10-(4-cyano-2-methoxyphenyl)-6,8-dimethyl-7H,10H-pyrazolo[3,2-f]1,6-naphthyridine-9-carbonitrile]
7.61 | CC1=C(C(N)=O)C(c2ccc(C#N)c3c2OCC3)c2c(OC(F)(F)F)ncc(C)c2N1 (stereo not drawn) [Example 23, 4-cyano-2,3-dihydrobenzofuran-7-yl-2,8-dimethyl-5-trifluoromethoxy-1,4-dihydro-1,6-naphthyridine-3-formamide]
7.67 | CCOc1ncc(C)c2c1C(c1ccc(C#N)c3c1OCCC3)C(C(N)=O)=C(C)N2 (stereo not drawn) [Example 6, 4-(5-cyanored-8-yl)-5-ethoxy-2,8-dimethyl-1,4-dihydro-1,6-naphthyridine-3-formamide]
7.72 | CC1=C(C(N)=O)C(c2ccc(C#N)c3c2OCC3)c2c(OC(F)F)ncc(C)c2N1 (stereo not drawn) [Example 17, 4-(4-cyano-2,3-dihydrobenzofuran-7-yl)-5-(difluoromethoxy)-2,8-dimethyl-1,4-dihydro-1,6-naphthyridine-3-formamide]
6.46 | COc1cc(C#N)ccc1C1C(C#N)=C(C)Nc2c(C)cc3nncn3c21 (stereo not drawn) [Example 10, 9-(4-cyano-2-methoxyphenyl)-5,7-dimethyl-6,9-dihydro[1,2,4]triazolo[4,3-a][1,5]naphthyridine-8-carbonitrile]
6.95 | CCOc1nc2c(c3c1C(c1ccc(C#N)cc1OC)C(C(N)=O)=C(C)N3)CCC2 (stereo not drawn) [Example 4, 4-(4-cyano-2-methoxyphenyl)-5-ethoxy-2-methyl-4,7,8,9-tetrahydrocyclopentane-1H-cyclopentamide]

SMILES | pIC50
CC1=C(C(N)=O)C(c2ccc(C#N)c3c2OCC3)c2c(OC3CCC3)ncc(C)c2N1 (stereo not drawn) [Example 21, 4-(4-cyano-2,3-dihydrobenzofuran-7-yl)-5-cyclobutoxy-2,8-dimethyl-1,4-dihydro-1,6-naphthyridine-3-formamide] | 7.69
CC1=C(C(N)=O)C(c2ccc(C#N)c3c2OCC3)c2c(OC3CCCC3)ncc(C)c2N1 (stereo not drawn) [Example 15, 4-(4-cyano-2,3-dihydrobenzofuran-7-yl)-5-cyclopentoxy-2,8-dimethyl-1,4-dihydro-1,6-naphthyridine-3-formamide] | 7.74
